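Cells were grown in 96-well plates and exposed to each compound for 48 hours at five concentrations; endpoints were interpolated linearly between bracketing concentrations, or set to the highest concentration if not reached. GI50 = concentration required for 50% inhibition of growth.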 Active and inactive are the calls of the source. No stated cut-off is given here; in the data, active = GI50 up to about 1.1 µM and inactive = higher.
Experiments:
Assay in all cases: inhibition of tumour cell growth, NCI panel, 48 h
RPMI-8226 = tested on: RPMI-8226
UACC-257 = tested on: UACC-257
OVCAR-5 = tested on: OVCAR-5
MDA-N = tested on: MDA-N
MCF7 = tested on: MCF7
MOLT-4 = tested on: MOLT-4
HCT-15 = tested on: HCT-15
Hs-578T = tested on: Hs-578T
NCI-H23 = tested on: NCI-H23
NCI/ADR-RES = tested on: NCI/ADR-RES
SW-620 = tested on: SW-620
OVCAR-4 = tested on: OVCAR-4
NCI-H460 = tested on: NCI-H460
MDA-MB-435 = tested on: MDA-MB-435
SK-MEL-2 = tested on: SK-MEL-2
786-0 = tested on: 786-0
SF-539 = tested on: SF-539
A498 = tested on: A498
MDA-MB-231 = tested on: MDA-MB-231
K562 = tested on: K562

| Compound | GI50 (RPMI-8226) | GI50 (UACC-257) | GI50 (OVCAR-5) | GI50 (MDA-N) | GI50 (MCF7) | GI50 (MOLT-4) | GI50 (HCT-15) [µM] | GI50 (Hs-578T) | GI50 (NCI-H23) | GI50 (NCI/ADR-RES) | GI50 (SW-620) | GI50 (OVCAR-4) | GI50 (NCI-H460) | GI50 (MDA-MB-435) | GI50 (SK-MEL-2) | GI50 (786-0) | GI50 (SF-539) | GI50 (A498) | GI50 (MDA-MB-231) | GI50 (K562) |
| --- | --- | --- | --- | --- | --- | --- | --- | --- | --- | --- | --- | --- | --- | --- | --- | --- | --- | --- | --- | --- |
| S=C1N=C2C(=N1)n1c3c(c4ccccc41)CCCC23 (stereo not given) | 30 µM (inactive) | 47.4 µM (inactive) | > 100 µM (inactive) | 63.8 µM (inactive) | 24 µM (inactive) | 36.6 µM (inactive) | 46.3 | 44.1 µM (inactive) | 48.3 µM (inactive) | 62.4 µM (inactive) | 32.4 µM (inactive) | 67.5 µM (inactive) | 38.6 µM (inactive) | 55.7 µM (inactive) | > 100 µM (inactive) | 15.5 µM (inactive) | 43.3 µM (inactive) | > 100 µM (inactive) | 66.4 µM (inactive) | 33.1 µM (inactive) |
| O=C1C[C@@]23CCC4(CC2=CCC[C@H]3O1)OCCO4 | > 100 µM (inactive) | > 100 µM (inactive) | > 100 µM (inactive) | > 100 µM (inactive) | > 100 µM (inactive) | > 100 µM (inactive) | > 100 | > 100 µM (inactive) | > 100 µM (inactive) | > 100 µM (inactive) | > 100 µM (inactive) | > 100 µM (inactive) | > 100 µM (inactive) | > 100 µM (inactive) | > 100 µM (inactive) | > 100 µM (inactive) | > 100 µM (inactive) | > 100 µM (inactive) | > 100 µM (inactive) | > 100 µM (inactive) |
| C(=N/Nc1ccccn1)/c1cccnc1 | > 100 µM (inactive) | 89.3 µM (inactive) | > 100 µM (inactive) | > 100 µM (inactive) | 43.9 µM (inactive) | 76.2 µM (inactive) | > 100 | > 100 µM (inactive) | 75 µM (inactive) | > 100 µM (inactive) | > 100 µM (inactive) | 98.9 µM (inactive) | > 100 µM (inactive) | > 100 µM (inactive) | > 100 µM (inactive) | > 100 µM (inactive) | > 100 µM (inactive) | > 100 µM (inactive) | > 100 µM (inactive) | 31 µM (inactive) |
| Cc1noc(NS(=O)(=O)c2ccc(NC(=O)c3ccc4nc5ccccc5c(Nc5ccc(S(=O)(=O)Nc6onc(C)c6C)cc5)c4c3)cc2)c1C | 36.2 µM (inactive) | > 100 µM (inactive) | > 100 µM (inactive) | > 100 µM (inactive) | 45.6 µM (inactive) | 80.5 µM (inactive) | 58.1 | > 100 µM (inactive) | > 100 µM (inactive) | > 100 µM (inactive) | 97.7 µM (inactive) | > 100 µM (inactive) | 67.3 µM (inactive) | > 100 µM (inactive) | > 100 µM (inactive) | 56.8 µM (inactive) | > 100 µM (inactive) | > 100 µM (inactive) | 22.1 µM (inactive) | 25.5 µM (inactive) |
| O=C1C2=C(C(=O)c3c(O)ccc(O)c31)[C@@H](O)[C@@H](O)[C@@H](O)C2 | 1.02 µM (active) | 0.957 µM (active) | 7.96 µM (inactive) | 1.49 µM (inactive) | 1.11 µM (active) | 2.94 µM (inactive) | 2.76 | 3.72 µM (inactive) | 1.96 µM (inactive) | 2.66 µM (inactive) | 0.681 µM (active) | 1.93 µM (inactive) | 4.71 µM (inactive) | 1.57 µM (inactive) | 1.73 µM (inactive) | 2.02 µM (inactive) | 3.71 µM (inactive) | 7.05 µM (inactive) | 2.14 µM (inactive) | 2.77 µM (inactive) |
| CC(=O)N1c2ccccc2C23CCN4CC5=CCOC(O)C(C5CC42)C13 (stereo not given) | > 100 µM (inactive) | > 100 µM (inactive) | > 100 µM (inactive) | > 100 µM (inactive) | > 100 µM (inactive) | > 100 µM (inactive) | > 100 | > 100 µM (inactive) | > 100 µM (inactive) | > 100 µM (inactive) | > 100 µM (inactive) | > 100 µM (inactive) | > 100 µM (inactive) | > 100 µM (inactive) | > 100 µM (inactive) | > 100 µM (inactive) | > 100 µM (inactive) | > 100 µM (inactive) | > 100 µM (inactive) | 31.9 µM (inactive) |
| Nc1c2c(nc3ccccc13)-c1ccccc1CCC2 | 8.67 µM (inactive) | 5.94 µM (inactive) | 13 µM (inactive) | 13.2 µM (inactive) | 13.6 µM (inactive) | 8.34 µM (inactive) | 14.3 | 20.2 µM (inactive) | 15.7 µM (inactive) | 14.2 µM (inactive) | 11.6 µM (inactive) | 14.4 µM (inactive) | 4.89 µM (inactive) | 13.5 µM (inactive) | 15 µM (inactive) | 14.1 µM (inactive) | 13.4 µM (inactive) | 8.22 µM (inactive) | 13.8 µM (inactive) | 6.65 µM (inactive) |
| FC(F)(F)c1cccc(-c2nc3nc(Cl)c(Cl)nc3[nH]2)c1 | 0.426 µM (active) | 2.22 µM (inactive) | 2.48 µM (inactive) | 2.18 µM (inactive) | 0.0241 µM (active) | 2.18 µM (inactive) | 2.64 | 2.57 µM (inactive) | 1.47 µM (inactive) | 2.53 µM (inactive) | 3.72 µM (inactive) | 2.28 µM (inactive) | 2.01 µM (inactive) | 2.52 µM (inactive) | 1.56 µM (inactive) | 3.77 µM (inactive) | 3.15 µM (inactive) | 1.75 µM (inactive) | 2.02 µM (inactive) | 1.74 µM (inactive) |
| C=CCNc1nc2c(s1)C(=O)c1ccccc1C2=O | 3.12 µM (inactive) | 2.7 µM (inactive) | 21.7 µM (inactive) | 1.86 µM (inactive) | 6.25 µM (inactive) | 2.26 µM (inactive) | 8.51 | 32.1 µM (inactive) | 4.4 µM (inactive) | 15.4 µM (inactive) | 12.9 µM (inactive) | 7.87 µM (inactive) | 12 µM (inactive) | 1.91 µM (inactive) | 10.9 µM (inactive) | 14.5 µM (inactive) | 8.11 µM (inactive) | 19.5 µM (inactive) | 10 µM (inactive) | 4.76 µM (inactive) |
| Cc1cc2c(cc1C)C(=O)c1ncccc1C2=O | 29.9 µM (inactive) | 18.7 µM (inactive) | 21.1 µM (inactive) | 18.7 µM (inactive) | 20.2 µM (inactive) | 20.4 µM (inactive) | 26.5 | > 100 µM (inactive) | 15.6 µM (inactive) | 22.8 µM (inactive) | 30.9 µM (inactive) | 21.9 µM (inactive) | 7.91 µM (inactive) | 16.8 µM (inactive) | 48.5 µM (inactive) | 28.5 µM (inactive) | 26.5 µM (inactive) | 50.2 µM (inactive) | 22.6 µM (inactive) | 17.5 µM (inactive) |
| COC(=O)C(Cc1ccccc1)NP(=O)(O)OCC1OC(n2ccc(N)nc2=O)C(O)C1O (stereo not given) | > 100 µM (inactive) | > 100 µM (inactive) | > 100 µM (inactive) | > 100 µM (inactive) | > 100 µM (inactive) | 76 µM (inactive) | > 100 | > 100 µM (inactive) | > 100 µM (inactive) | > 100 µM (inactive) | > 100 µM (inactive) | > 100 µM (inactive) | > 100 µM (inactive) | > 100 µM (inactive) | > 100 µM (inactive) | > 100 µM (inactive) | > 100 µM (inactive) | > 100 µM (inactive) | > 100 µM (inactive) | > 100 µM (inactive) |
| COc1cc2c3cc1Oc1c(OC)c(OC)cc4c1C(Cc1ccc(O)c(c1)Oc1ccc(cc1)CC3N(C)CC2)CN(C)C4 (stereo not given) | 13 µM (inactive) | 13.5 µM (inactive) | 21.5 µM (inactive) | 12.2 µM (inactive) | 16.4 µM (inactive) | 7.31 µM (inactive) | 14 | 15.5 µM (inactive) | 16.9 µM (inactive) | 19.3 µM (inactive) | 12.9 µM (inactive) | 17.6 µM (inactive) | 16 µM (inactive) | 11.5 µM (inactive) | 18.3 µM (inactive) | 10.8 µM (inactive) | 12.9 µM (inactive) | 16.9 µM (inactive) | 12.2 µM (inactive) | 5.22 µM (inactive) |

Source: ChEMBL document CHEMBL1201862, “PubChem BioAssay data set” (2004)
